In test [1] the target is T1, human cannabis CB1 receptor (Homo sapiens, UniProt P21554).
T1 construct: expressed in transfected cells; host or cells: human embryonic kidney (HEK) cells, Semliki Forest Virus system
The test is described as follows: Affinity for cannabinoid CB1 receptors, [3H]-CP-55,940 radioligand binding on HEK cell membranes. On the procedure:
The affinity of the compounds of the invention for cannabinoid CB1 receptors was determined using membrane preparations of human embryonic kidney (HEK) cells in which the human cannabis CB1 receptor is transiently transfected using the Semliki Forest Virus system in conjunction with [3H]-CP-55,940 as radioligand. After incubation of a freshly prepared cell membrane preparation with the [3H]-ligand, with or without addition of compounds of the invention, separation of bound and free ligand was performed by filtration over glassfiber filters. Radioactivity on the filter was measured by liquid scintillation counting.
The compounds of formula (I) show an excellent affinity for the CB1 receptor, determined with the experimental conditions described in Devane et. al. Mol. Pharmacol. 34 (1988) 605-613.

The conditions of test [2]: doses of 5, 10 and 20 mg daily; cited from earlier work.
For test [3] the following is noted: wild-type versus CB1 receptor knockout mice; cited from earlier work.
[4] abbreviates: affinity for the CB1 receptor, HEK membranes, [3H]-CP-55,940, read-out: IC50.

Read-outs that look alike come from different tables or passages of the source.

Data on 4 compounds can be found in patent US7786128B2, “Indole or benzimidazole derivatives as CB1 inverse agonists” (Hoffmann-La Roche Inc., priority 2004, dated 2010).

As usually defined, the IC50 is the concentration needed to halve the response being measured.

T1 sequence (P21554 whole entry): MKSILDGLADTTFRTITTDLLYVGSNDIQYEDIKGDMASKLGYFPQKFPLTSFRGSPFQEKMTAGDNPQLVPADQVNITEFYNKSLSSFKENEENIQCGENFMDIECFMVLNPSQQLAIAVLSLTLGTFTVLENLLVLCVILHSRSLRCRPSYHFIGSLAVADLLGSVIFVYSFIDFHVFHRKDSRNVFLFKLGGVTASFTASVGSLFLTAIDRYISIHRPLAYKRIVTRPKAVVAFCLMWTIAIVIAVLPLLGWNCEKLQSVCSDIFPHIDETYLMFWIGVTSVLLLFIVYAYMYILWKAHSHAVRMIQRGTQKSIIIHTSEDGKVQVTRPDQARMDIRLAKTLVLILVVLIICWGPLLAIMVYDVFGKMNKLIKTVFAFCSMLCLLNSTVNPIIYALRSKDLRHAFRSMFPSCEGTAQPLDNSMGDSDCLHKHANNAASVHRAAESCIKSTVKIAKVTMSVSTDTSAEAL

Regarding `CCCCNC(=O)c1ccc2c(c1)cc(COc1ccccc1)n2Cc1ccc(OC(F)(F)F)cc1` [Example 101, 2-phenoxymethyl-1-(4-trifluoromethoxy-benzyl)-1H-indole-5-carboxylic acid butylamide], the half-inhibitory concentration (IC50) in test [1] (setting [4]) was 20 nM.

Take `CCCCNC(=O)c1ccc2c(c1)nc(COc1ccccc1)n2Cc1ccc(OC(F)(F)F)cc1` [Example 61, 2-Phenoxymethyl-1-(4-trifluoromethoxy-benzyl)-1H-benzoimidazole-5-carboxylic acid butyl-amide]: the 50% inhibitory concentration (IC50) in test [1] (setting [4]) came to 30 nM. On to `CC(Oc1ccccc1)c1nc2ccc(N3CCN(S(=O)(=O)N(C)C)CC3)cc2n1Cc1ccc(Cl)cc1` (centres unmarked) [Example 51, 4-[3-(4-chloro-benzyl)-2-(1-phenoxy-ethyl)-3H-benzoimidazol-5-yl]-piperazine-1-sulfonic acid dimethylamide], for which, in test [1], the IC50 stood at 60 nM. As to `Cc1c(C(=O)NN2CCCCC2)nn(-c2ccc(Cl)cc2Cl)c1-c1ccc(Cl)cc1` [SR 141716], the “body weight compared to placebo” value in test [2] is given as “significantly reduced body weight”. The food intake result in test [3] was “reduces food intake in wild-type but not knockout mice”.
